The test system of test [1] is JEG-3 cells. Nature of the test: [3H]-thymidine incorporation by JEG-3 cells (leptin assay in non-recombinant system). In kind it is cell-based. Conditions: FIG. 5. An excerpt: Leptin Assay in Non-Recombinant System The leptin receptor expression in non-recombinant system is often fluctuating and care must be given to identify a system where signal stability remains within experiments. Using such a system, leptin receptor antagonist mimetics could be identified by evaluating is their action vs. leptin (see below). Leptin is produced chiefly in adipose cells, but in humans, mRNA encoding leptin is also present in the placenta. Here, leptin might play an important proliferative role in the microvasculature. The possibility to use this hypothesis in a native cell line was evaluated. JEG-3 Protocol In JEG-3 cells (choriocarcinoma cell line) leptin is able to stimulate proliferation up to 3 fold (Biol. Reprod. (2007) 76: 203-10). […] The radioactivity incorporated by the cells is an index of their proliferative activity and is measured in counts per minute (CPM) with a liquid scintillation beta counter. This finding can be applied to test whether a compound is able to either reproduce the effect of leptin on cell proliferation (leptin receptor agonist mimetic) (i.e., a given compound will cause an increase in incorporated [^3H]-Thymidine by the cells) or to inhibit the effect of leptin (antagonistic effect) by preventing the leptin-mediated increase in [^3H]-thymidine incorporation. […]

The test system of test [2] is JEG-3 cells. The note with it: Biol. Reprod. (2007) 76: 203-10; cited from earlier work.

Here are results for 1 substance from patent US20110275678A1, “New Pyridine Derivatives as Leptin Receptor Modulator Mimetics” (priority 2008, published 2011).

“leptin: a hormone synthesized in fat cells that is believed to act in the hypothalamus to reduce food intake and body weight”: the EC50 in the test on JEG-3 cells [1] (JEG-3 cells (choriocarcinoma cell line), read-out: EC50, increase in [3H]-thymidine incorporation) stood at 2.1 nM. Moreover, the “concentration of maximal effect on [3H]-thymidine incorporation” value in the test on JEG-3 cells [1] (JEG-3 cells) is reported as 100 nM. Moreover, in the test with JEG-3 cells [2], the stimulation of proliferation entry is recorded as “up to 3 fold”.
